Earlier results in US20200254013A1, “COMPOSITIONS COMPRISING ALPHA-POLYGLUTAMIC ACID-ZINC FOR TREATING CANCER” (XYLONIX IP HOLDINGS PTE. LTD., priority 2017, published 2020).

Columns and labels:
[1] = tested on: folate receptor (FR), FR-α and FR-β
[2] = tested on: murine thymocytes, murine splenic lymphocytes, human Ramos B, and human Jurkat T cells; conditions: nanomolar concentrations
[3] = dietary administration 240 ppm, after 9-14 days
[4] = tested on: LNCaP, PC3, DU145 prostate cancer cell lines; conditions: 1-10 μM

CN(CC1CNc2nc(N)[nH]c(=O)c2N1C)c1ccc(C(=O)N[C@@H](CCC(=O)O)C(=O)O)cc1 (stereo partly shown) [DMTHF, N^5, N^10-dimethyl tetrahydrofolate]
affinity for FR-α versus FR-β [1]: higher affinity for FR-α over FR-β

zinc pyrithione
apoptosis in leukocyte-originating cells [2]: induced zinc-specific apoptosis
neurological toxicity in rats [3]: acute neurological toxicity
ATP-depletion and necrosis in prostate cancer cell lines [4]: elicited ATP-depletion and, eventually, ERK and PKC-dependent necrosis
